Results: article PMC10501769 (eLife, 2023)

molecular target: Rv0158 (Mycobacterium tuberculosis, UniProt O53641); assay: biochemical
Sequence (O53641 entry or part of it): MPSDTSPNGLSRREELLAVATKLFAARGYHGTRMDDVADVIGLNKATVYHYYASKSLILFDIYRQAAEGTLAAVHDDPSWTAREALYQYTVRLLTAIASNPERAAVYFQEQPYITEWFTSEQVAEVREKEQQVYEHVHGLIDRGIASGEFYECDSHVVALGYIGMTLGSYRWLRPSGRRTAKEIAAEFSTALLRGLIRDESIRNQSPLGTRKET

Compared with `CCCCCCCCCCCC(=O)SCCNC(=O)CCNC(=O)[C@H](O)C(C)(C)COP(=O)(O)OP(=O)(O)OC[C@H]1O[C@@H](n2cnc3c(N)ncnc32)[C@H](O)[C@@H]1OP(=O)(O)O` [C12-CoA], `CCCCCCCCCC(=O)SCCNC(=O)CCNC(=O)[C@H](O)C(C)(C)COP(=O)(O)OP(=O)(O)OC[C@H]1O[C@@H](n2cnc3c(N)ncnc32)[C@H](O)[C@@H]1OP(=O)(O)O` [Decanoyl-CoA] is 5.8-fold higher in Kd: 1100 ± 600 nM for the first, 6400 ± 1200 nM for the second. The first binds more tightly here.

`CCCCCCCCCCCCCCCC(=O)SCCNC(=O)CCNC(=O)[C@H](O)C(C)(C)COP(=O)(O)OP(=O)(O)OC[C@H]1O[C@@H](n2cnc3c(N)ncnc32)[C@H](O)[C@@H]1OP(=O)(O)O` [C16-CoA] and `CCCCCCCCCCCCCCCCCC(=O)SCCNC(=O)CCNC(=O)[C@H](O)C(C)(C)COP(=O)(O)OP(=O)(O)OC[C@H]1O[C@@H](n2cnc3c(N)ncnc32)[C@H](O)[C@@H]1OP(=O)(O)O` [C18-CoA] are within error of each other in Kd: 1800 ± 500 nM for the first, 2800 ± 800 nM for the second.

Compared with `CC(C)(COP(=O)(O)OP(=O)(O)OC[C@H]1O[C@@H](n2cnc3c(N)ncnc32)[C@H](O)[C@@H]1OP(=O)(O)O)[C@@H](O)C(=O)NCCC(=O)NCCSC(=O)CC(=O)O` [Malonyl-CoA], `CC(C(=O)O)C(=O)SCCNC(=O)CCNC(=O)[C@H](O)C(C)(C)COP(=O)(O)OP(=O)(O)OC[C@H]1O[C@@H](n2cnc3c(N)ncnc32)[C@H](O)[C@@H]1OP(=O)(O)O` (stereo partly drawn) [Methylmalonyl-CoA] is 2.7-fold lower in Kd: 2400 ± 1000 nM for the first, 900 ± 300 nM for the second.
